According to patent US8674111B2, “Oxazole and thiazole derivatives as ALX receptor agonists” (Actelion Pharmaceuticals Ltd., priority 2009, dated 2014):

These compounds were tested against T1, recombinant human ALX receptor (Homo sapiens, UniProt P25090) (assay: Intracellular calcium measurements (FLIPR), ALX receptor agonistic activity). Conditions: HEK293-hALXR-Gα16 cells; Fluo-4 calcium fluorescence; normalized to WKYMVm 10 nM.
T1 construct: expressed in transfected cells; host or cells: HEK293 (HEK293-hALXR-Gα16)
T1 sequence (P25090 1-351): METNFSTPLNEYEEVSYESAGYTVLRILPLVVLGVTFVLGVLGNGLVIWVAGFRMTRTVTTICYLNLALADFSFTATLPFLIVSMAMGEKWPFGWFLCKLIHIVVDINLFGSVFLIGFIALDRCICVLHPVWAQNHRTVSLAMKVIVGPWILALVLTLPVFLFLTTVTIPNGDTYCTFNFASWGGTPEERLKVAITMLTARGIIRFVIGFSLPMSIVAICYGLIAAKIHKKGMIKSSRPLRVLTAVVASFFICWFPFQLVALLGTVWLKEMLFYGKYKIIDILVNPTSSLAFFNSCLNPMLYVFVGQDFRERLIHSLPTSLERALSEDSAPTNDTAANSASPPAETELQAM
Format: cell-based
Experimental: The ALX receptor agonistic activity of the compounds of formula (I) is determined in accordance with the following experimental method.
Intracellular Calcium Measurements:
Cells expressing recombinant human ALX receptor and the G-protein Gα16 (HEK293-hALXR-Gα16) were grown to 80% confluency in Growing Medium (GM). Cells were detached from culture dishes with a cell dissociation buffer (Invitrogen, 13151-014), and collected by centrifugation at 1,000 rpm at rt for 5 min in Assay Buffer (AB) (equal parts of Hank's BSS (Gibco, 14065-049) and DMEM without Phenol Red (Gibco, 11880-028)). After 60 min incubation at 37° C. under 5% CO2 in AB supplemented with 1 μM Fluo-4 (AM) (Invitrogen, F14202) and 20 mM HEPES (Gibco, 15630-056), the cells were washed and resuspended in AB. They were then seeded onto 384-well FLIPR assay plates (Greiner, 781091) at 50,000 cells in 70 μl per well and sedimented by centrifugation at 1,000 rpm for 1 min. Stock solutions of test compounds were made up at a concentration of 10 mM in DMSO, and serially diluted in AB to concentrations required for activation dose response curves. WKYMVm (Phoenix Peptides) was used as a reference agonist. A FLIPR Tetra instrument (Molecular Devices) was operated according to the manufacturer's standard instructions, adding 4 μl of test compound dissolved at 10 mM in DMSO and diluted prior to the experiment in assay buffer to obtain the desired final concentration. Changes in fluorescence were monitored before and after the addition of test compounds at lex=488 nm and lem=540 nm. Emission peak values above base level after compounds addition were exported after base line subtraction. Values were normalized to high-level control (WKYMVm compound, 10 nM final concentration) after subtraction of the base line value (AB addition).
With `CC(=O)CCCCc1nc(NC(=O)OCc2ccccc2Cl)co1` [Example 1, [2-(5-Oxo-hexyl)-oxazol-4-yl]-carbamic acid 2-chloro-benzyl ester] the EC50 was 0.3 nM.
`CC(=O)CCCCc1nc(NC(=O)c2ncoc2-c2ccccc2)co1` [Example 2, 5-Phenyl-oxazole-4-carboxylic acid [2-(5-oxo-hexyl)-oxazol-4-yl]-amide] gave an EC50 of 18 nM.
`CC(=O)c1ccn(Cc2nc(NC(=O)OCc3ccccc3Cl)co2)n1` [Example 3, [2-(3-Acetyl-pyrazol-1-ylmethyl)-oxazol-4-yl]-carbamic acid 2-chloro-benzyl ester] gave an EC50 of 0.7 nM.
With `CC(F)(F)CCCCc1nc(NC(=O)OCc2ccccc2Cl)co1` [Example 4, [2-(5,5-Difluoro-hexyl)-oxazol-4-yl]-carbamic acid 2-chloro-benzyl ester] the EC50 was 13 nM.
`Cc1cccc(-c2oc(C)nc2C(=O)Nc2coc(CCCCC(C)(F)F)n2)c1` [Example 5, 2-Methyl-5-m-tolyl-oxazole-4-carboxylic acid [2-(5,5-difluoro-hexyl)-oxazol-4-yl]-amide] showed an EC50 of 194 nM.
`CC(=O)CCCCc1nc(NC(=O)c2nc(C)oc2-c2cccc(C)c2)co1` [Example 6, 2-Methyl-5-m-tolyl-oxazole-4-carboxylic acid [2-(5-oxo-hexyl)-oxazol-4-yl]-amide] showed an EC50 of 9.8 nM.
`CC(=O)CCCCc1nc(NC(=O)c2ncsc2-c2cccc(F)c2)co1` [Example 7, 5-(3-Fluoro-phenyl)-thiazole-4-carboxylic acid [2-(5-oxo-hexyl)-oxazol-4-yl]-amide] gave an EC50 of 784 nM.
For `CC(=O)CCCCc1nc(NC(=O)c2ncoc2-c2ccc(F)cc2)co1` [Example 8, 5-(4-Fluoro-phenyl)-oxazole-4-carboxylic acid [2-(5-oxo-hexyl)-oxazol-4-yl]-amide], the EC50 was 86 nM.
Compound `CCc1nc(C(=O)Nc2coc(CCCCC(C)=O)n2)c(-c2ccccc2)o1` [Example 9, 2-Ethyl-5-phenyl-oxazole-4-carboxylic acid [2-(5-oxo-hexyl)-oxazol-4-yl]-amide] has an EC50 of 3.2 nM.
`O=C(Nc1coc(Cn2cc(Br)cn2)n1)OCc1ccccc1Cl` [Example 10, [2-(4-Bromo-pyrazol-1-ylmethyl)-oxazol-4-yl]-carbamic acid 2-chloro-benzyl ester] showed an EC50 of 72 nM.
Work on `CC(=O)c1ccn(Cc2nc(NC(=O)OCc3ccc(F)cc3Cl)co2)n1` [Example 11, [2-(3-Acetyl-pyrazol-1-ylmethyl)-oxazol-4-yl]-carbamic acid 2-chloro-4-fluoro-benzyl ester] yielded an EC50 of 0.5 nM.
In the case of `COc1cccc(COC(=O)Nc2coc(Cn3ccc(C(C)=O)n3)n2)c1` [Example 12, [2-(3-Acetyl-pyrazol-1-ylmethyl)-oxazol-4-yl]-carbamic acid 3-methoxy-benzyl ester], the EC50 is reported as 1 nM.
Work on `CC(=O)c1ccn(Cc2nc(NC(=O)OCc3ccc(C(F)(F)F)cc3)co2)n1` [Example 13, [2-(3-Acetyl-pyrazol-1-ylmethyl)-oxazol-4-yl]-carbamic acid 4-trifluoromethyl-benzyl ester] yielded an EC50 of 12 nM.
For `CC(=O)c1ccc(Cc2nc(NC(=O)OCc3ccccc3Cl)co2)s1` [Example 14, [2-(5-Acetyl-thiophen-2-ylmethyl)-oxazol-4-yl]-carbamic acid 2-chloro-benzyl ester], the EC50 was 2.2 nM.
`CC(=O)c1cccc(Cc2nc(NC(=O)OCc3cccc(OC(F)(F)F)c3)co2)c1` [Example 15, [2-(3-Acetyl-benzyl)-oxazol-4-yl]-carbamic acid 3-trifluoromethoxy-benzyl ester] was tested, and the EC50 was 48 nM.
`CC(=O)c1ccn(Cc2nc(NC(=O)c3nc(C4CC4)sc3-c3ccccc3)co2)n1` [Example 16, 2-Cyclopropyl-5-phenyl-thiazole-4-carboxylic acid [2-(3-acetyl-pyrazol-1-ylmethyl)-oxazol-4-yl]-amide] was tested, and the EC50 was 6560 nM.
For `CC(=O)c1cccc(Cc2nc(NC(=O)/C=C/c3ccc(C(F)(F)F)cc3)co2)c1` [Example 17, (E)-N-[2-(3-Acetyl-benzyl)-oxazol-4-yl]-3-(4-trifluoromethyl-phenyl)-acrylamide], the EC50 was 1310 nM.
`CC(=O)c1ccc(Cc2nc(NC(=O)c3ncoc3-c3ccccc3)cs2)s1` [Example 18, 5-Phenyl-oxazole-4-carboxylic acid [2-(5-acetyl-thiophen-2-ylmethyl)-thiazol-4-yl]-amide] was tested, and the EC50 was 1570 nM.
`CC(=O)c1ccc(Cc2nc(NC(=O)c3nc(C)oc3-c3cccc(Cl)c3)cs2)s1` [Example 19, 5-(3-Chloro-phenyl)-2-methyl-oxazole-4-carboxylic acid [2-(5-acetyl-thiophen-2-ylmethyl)-thiazol-4-yl]-amide] was tested, and the EC50 was 3640 nM.
With `CC(=O)c1ccc(Cc2nc(NC(=O)c3ncoc3-c3ccccc3)cs2)o1` [Example 20, 5-Phenyl-oxazole-4-carboxylic acid [2-(5-acetyl-furan-2-ylmethyl)-thiazol-4-yl]-amide] the EC50 was 62 nM.
`CC(=O)c1ccc(Cc2nc(NC(=O)c3nc(C)oc3-c3cccc(C)c3)cs2)o1` [Example 21, 2-Methyl-5-m-tolyl-oxazole-4-carboxylic acid [2-(5-acetyl-furan-2-ylmethyl)-thiazol-4-yl]-amide] showed an EC50 of 216 nM.
